Assay: Waters SunFire C18, 150 × 2.1 mm, 3.5 µm, 25 °C, 0.25 mL/min, estimated dead time 1.3 min; A: water + 0.1% formic acid; B: methanol; gradient (min/%B) 0/5 30/100
Details: stereoisomer not certain

Compound	LC retention time [min]
CC=C1CN2CCC34c5ccccc5N5C(C(=O)OC)C1CC2C53OC(=O)c1c4ccc(O)c1O (stereo unspecified)	19.6
C=CC1CN2CCC1CC2c1[nH]c2ccccc2c1CCO (stereo unspecified)	16.7
CN1CCC23C(=O)CC4C(=CCOC5CC(=O)N(c6ccccc62)C3C54)C1 (stereo unspecified)	13.6
CCC1CN(C)C2Cc3c([nH]c4ccccc34)C(c3c(OC)ccc4c5c([nH]c34)C3([C-]=[O+]OC)CC4CC(CC)C3N(CC5)C4O)CC1C2C(=O)OC (stereo unspecified)	15.1
CC=C1CN2CCc3c([nH]c4ccc(O)cc34)C2CC1CCO (stereo unspecified)	11.7
CC=C1CN(C)CCC23C(=O)CC1C1COC(O)C(=O)N(c4ccccc42)C13 (stereo unspecified)	12.1
CCC1CN2CCC3(C(=O)Nc4ccccc43)C2CC1C(=COC)C(=O)OC (stereo unspecified)	16.4
CCC1CN2CCC34c5ccccc5NC3C(CO)C1CC24 (stereo unspecified)	10.4
CCC1CN2CCc3c([nH]c4ccccc34)C2CC1Cc1nccc2c1[nH]c1ccccc12 (stereo unspecified)	14.5
CC=C1CN2CCC34C(=C(C(=O)OC)C1CC23)Nc1ccccc14 (stereo unspecified)	11.1
CC=C1CN2CCC34CN5c6c(cccc6C36C2CC1C(C(=O)OC)N6c1ccccc14)C12CCN3CCCC4(CCC51C4C)C32 (stereo unspecified)	15
CC=C1CN2C3CC45c6ccccc6NC4(O3)C2CC1C5(COC(C)=O)C(=O)OC (stereo unspecified)	17.3
O=C1CC2OCC=C3CN4CCC56c7ccccc7N1C5C2C3CC46O (stereo unspecified)	13.3
CCC1CC2CC3c4[nH]c5cc(OC)ccc5c4CCN(C2)C13 (stereo unspecified)	18.6
CCC1CN2CCc3c([nH]c4ccccc34)C2CC1C(=COC)C(=O)OC (stereo unspecified)	16.8
COC(=O)C1=COC(C)C2Cn3ccc4c5ccccc5nc-4c3CC12 (stereo unspecified)	13.2
CC=C1CN2C3CC1C(C(=O)OC)C2Cc1c3[nH]c2ccccc12 (stereo unspecified)	16.2
COc1cc2c(cc1OC)C13CCN4CC5=CCOC6CC(=O)N2C1C6C5CC43 (stereo unspecified)	12.9
O=C1CC=C2C3CC4N(CCC45c4ccccc4N1C25)CC3=CCO (stereo unspecified)	12.1

Compound	LC retention time [min]
CCC1(O)C(=O)OCc2c1cc1n(c2=O)Cc2cc3ccccc3nc2-1 (stereo unspecified)	27.2
CCC1CC2CC3c4[nH]c5ccccc5c4CCN(C2)C13 (stereo unspecified)	15.3
CCC1=CN2CCC3=c4ccccc4=NC3=C2C=C1	14.4
C=C1C2CC(=O)c3[nH]c4ccccc4c3C1N(C)CC2=CC (stereo unspecified)	14.2
C=CC1C(OC2OC(CO)C(O)C(O)C2O)OC=C(C(=O)OC)C1CC1NCCc2c1[nH]c1ccccc21 (stereo unspecified)	17
CC=C1CN(C)CC2Cc3c([nH]c4ccccc34)C(=O)CC12 (stereo unspecified)	14.3
COC(=O)C1CC23CCCN4CCC5(c6cc(Cc7ccc8c(c7)C79CCN%10CCCC%11(CCC7(N8)C(C(=O)O)C%11)C%109)ccc6N(C)C15CC2)C43 (stereo unspecified)	18
C=CC12C=CCN3CCC4(c5ccccc5NC(=O)C4C1)C32 (stereo unspecified)	11.7
CC=C1C[N+]2(C)CCC34C(=C(C=O)C1CC32)Nc1ccccc14 (stereo unspecified)	11.3
CN1CCC23C(=O)CC4C(=CCOC5CC(=O)N(c6c(O)cccc62)C3C54)C1 (stereo unspecified)	13.4
CC=C1CN2C(C3=CC4C5CC6N(CCC67c6ccccc6N(C3=O)C47)CC5=CC)CC34c5ccccc5N5C(=O)CC=C(C1CC23)C54 (stereo unspecified)	16
OC1OCC=C2CN3CCC45c6ccccc6NC4C1C2CC35 (stereo unspecified)	9.62
CC=C1CN2CCC34Cc5cc6c7c([nH]c6cc5OC35C2CC1C(C(=O)OC)N5c1ccccc14)CCC1(CC)CCCN(CC7)C1 (stereo unspecified)	14.7
COc1ccc2c(c1)N1C(=O)CC3OCC=C4CN5CCC26C5CC4C3C16 (stereo unspecified)	16.8
COC(=O)C1CC23CCCN4CCC5(c6cc(Cc7ccc8c(c7)C79CCN%10CCCC%11(CCC7(C(C(=O)OC)C%11)N8C)C%109)ccc6N(C)C15CC2)C43 (stereo unspecified)	19.5
CCC1=CC2CN3CCc4c([nH]c5ccccc45)C(C(=O)OC)(C2)C13 (stereo unspecified)	16.1
CC=C1CN2CCC34c5cc(-c6cc7c(cc6OC)C68CCN9CC(=CC)C(CCC96N7C)C8C(=O)OC)c(OC)cc5N(C)C3C2CC1C4C(=O)OC (stereo unspecified)	16.9
CCC1CN2CCc3c([nH]c4ccccc34)C2CC1CCO (stereo unspecified)	14.1

The next lines start with the values.

LC retention time [min]	Compound
13.4	CC=C1CNC2Cc3c([nH]c4ccccc34)C(=O)CC1C2C(=O)OC (stereo unspecified)
16	CCC12CC(C(=O)OC)=C3Nc4ccccc4C34CCN(C(c3ccc5c(c3)C3CCN6CC7OC7C7(CC)CCC3(N5)C67)C3OC31)C42 (stereo unspecified)
13.6	C=CC1CN2CCc3c([nH]c4ccc(O)cc34)C2CC1CC1c2[nH]c3ccccc3c2CCN1C (stereo unspecified)
14.8	CC=C1C[N+]2(C)CCc3c4n(c5ccccc35)C(CO)C1CC42 (stereo unspecified)
10.8	COC(=O)C1=C2Nc3ccccc3C23CCN2CC(C(C)O)C1CC23 (stereo unspecified)
15.3	CC=C1C2CC[N+]3([O-])CCC4(C(=C2C(=O)OC)Nc2ccccc24)C13 (stereo unspecified)
28.8	COC(=O)C1C(O)CCC2CN3CCc4c([nH]c5ccc(C)cc45)C3CC21 (stereo unspecified)
17.2	COC(=O)C1CC23CCCN4CCC5(c6ccccc6N(C)C15CC2)C43 (stereo unspecified)
13.8	CC=C1CN2CCC34C(=O)c5cc6c(cc5OC35C2CC1C(C(=O)OC)N5c1ccccc14)NC12CCC3(CC)CCC[N+]1(CCC62O)C3 (stereo unspecified)
15.9	CC1OCC2C3CC(=O)C4(CCN(C)CC13)c1ccccc1NC24 (stereo unspecified)
20	CCC12CCCN3CCc4c(n(c5ccccc45)C(O)(C(=O)OC)C1)C32 (stereo unspecified)
27	CCC1=C(CC(=O)OC)C(OC)(c2nccc3c2[nH]c2ccccc23)OC1=O (stereo unspecified)
15.8	CC=C1C[n+]2ccc3c([nH]c4ccccc43)c2CC1C(C(=O)OC)C1OCC2C3CC4N(CCC45c4ccccc4N1C25)CC3CC (stereo unspecified)
15.1	COC(=O)C1CC23CCCN4C(=O)CC5(c6ccccc6N(C)C15CC2)C43 (stereo unspecified)
16.3	CCC1CN(C)C2Cc3c([nH]c4ccccc34)C(O)(c3cc4c5c([nH]c4cc3OC)C3(C(=O)OC)CC4CC(CC)C3N(CC5)C4)CC1C2C(=O)OC (stereo unspecified)
13.4	CC=C1C[N+]2([O-])CCC34Cc5cc6c(cc5OC35C2CC1C(C(=O)OC)N5c1ccccc14)NC12CCC3(CC)CCC[N+]1(CCC62O)C3 (stereo unspecified)
10.3	C=CC1C(OC2OC(CO)C(O)C(O)C2O)OC2OC3CNC4CC1C2(C(=O)OC)C41Nc2ccccc2C31 (stereo unspecified)
13.3	C=CC1CN2CCc3c([nH]c4cc(O)ccc34)C2CC1CC1c2[nH]c3ccccc3c2CCN1C (stereo unspecified)
18.5	C=CC(CO)C1CCN2CCc3c([nH]c4ccccc34)C2C1 (stereo unspecified)
17.5	CC=C1CN2CCc3c4n(c5ccccc35)C(C(=O)OC)C1CC42 (stereo unspecified)
14.8	CCC1(O)CC23CC4N(CCC45C(=C2C(=O)OC)Nc2ccccc25)C13 (stereo unspecified)
22.6	CCC1CN(C)C2Cc3c([nH]c4ccccc34)C(c3cc4c5c([nH]c4cc3OC)C3(C(=O)OC)CC4CC(CC)C3N(CC5)C4=O)CC1C2C(=O)OC (stereo unspecified)
18.2	CC=C1CN2CCC3=C([NH2+]c4ccccc43)C2CC1C(Cc1cn2c(c3nc4ccccc4c1-3)CC1C(C(=O)OC)=COC(C)C1C2)C(=O)OC (stereo unspecified)
8.71	C=CC1CN2CCC3(C(=O)Nc4c3ccc(O)c4C3CCCN3C)C2CC1CC1c2[nH]c3ccccc3c2CCN1C (stereo unspecified)

Reference: the RepoRT retention time repository
